Values of other authors in patent publication US10258598B2, “Compounds for use in the prevention or treatment of cancer” ([…], priority 2014, dated 2019).
Structures can show the parent of a compound that is named as a salt.

Test system: norepinephrine and dopamine stores in catecholaminergic neurons in the brain stem
Conditions: 1 mg/kg s.c.; cited from earlier work

In the case of COc1cc2c(cc1OC)C1CC(=O)C(CC(C)C)CN1CC2 (stereo not shown) [Tetrabenazine, Tetrabenazine HCl], the “depletion of norepinephrine and dopamine from their stores” value is given as “at least 90%”.
